Source: patent publication US10314877B2, “Method for lymph drainage” (ABOCA S.P.A. SOCIETÀ AGRICOLA, priority 2015, dated 2019)

Experiments:
[1] = system: Human Dermal Lymphatic Endothelial Cells (HDLEC); assay: Vascular (endothelial) permeability test, FITC-dextran passage through lymphatic endothelial monolayer; type: cell-based; conditions: IL-1β 10 ng/ml 1 h, no extract
Experimental: In box A of FIG. 1 what is shown is the model in which lymphatic or hematic endothelial cells are measured in culture on a semi-permeable membrane, with presence of culture medium above and below said membrane, so as to allow the passage of components present in the medium when the cells are not strictly linked to one another, and FITCH-dextran molecules are inserted in the culture medium above the cells.
Quantification by means of fluorescence of the FITC-dextran complex provides a measure of the permeability of the endothelium. […]
The authors have therefore used a model, shown schematically in FIG. 1, to study the effects of various plant extracts on endothelia of blood or lymphatic vessels. […] The degree of permeability has been determined by way of experiment by measuring the amount of fluorescent probe that crosses the endothelial barrier separating the two compartments representing, respectively, the lumen of the vessel (above the semi-permeable membrane) and the interstice (below the semi-permeable membrane). […]
The samples were assessed in 2-3 concentrations vs. vehicle alone on the cell cultures, untreated and treated with IL1beta (10 ng/ml), to understand if they have any effect in themselves on undamaged cells and if the tested substances are able to reverse the rise in permeability induced by IL1beta. […]

[2] = system: occludin and ZO-1 in confluent HDLEC and HDBEC cells; assay: Immunofluorescence analysis of tight junction proteins occludin and ZO-1; type: cell-based, human; conditions: IL-1beta alone 10 ng/ml, 1 hour
Experimental: FIG. 11 reports the data of immunofluorescence analyses of occludin (upper boxes) and of the protein ZO-1 (lower boxes) in confluent HDLEC (A) and HDBEC (B) cells treated with the following stimuli: no stimulus, IL-1beta alone (10 ng/ml, 1 hour), mixture of the invention alone (10 micrograms/ml 18 hours); mixture of the invention (18 hours)+IL-1beta (1 hour). The confocal images were taken with 60× enlargement, the scale bar=10 micrometers.
Occludin and ZO-1 were assessed as markers representative of tight endothelial junctions. The confluent cells express these markers, whereas they are reduced following treatment with IL-1beta.
The proteins of occluding tight junction and zona occludens 1 (ZO-1) expressed on the cell surface were visualised using confocal analysis. The cells were plated 5×10^4 on 1 cm circular glass slides. After 24 hours the cells were washed and treated with the mentioned stimulants. The immunofluorescence analysis was carried out as reported in the materials and methods of Monti et al, Pharmacol Res 2013; 76:171-81.

“IL-1β: interleukin beta, inflammatory agent used to raise endothelial permeability” was tested, and the “permeability of endothelial cells treated with IL-1β alone (healthy cells = 100%)” value [1] was “approximately 160%” and the “tight junction markers occludin and ZO-1” value [2] was “reduced”.
